Legend:
PD-L1 [1] = assay: Western blot of PD-L1 in total cell lysates and exosomes of HeLa cells; type: cell-based; conditions: for 6J1-induced exosomal PD-L1 secretion: 1 μM, 24 h
Procedure: PD-L1 has been previously shown to be secreted outside the cell through exosomes. HeLa cells are plated on coverslips in 24-well plates and stained with the anti-PD-L1 antibody on ice for 1 h. At the indicated times after being incubated at a warm medium at 37° C., cells are fixed and stained with antibodies against CD63 or Rab27a. […] Cells are treated with or without ionomycin (1 μM) for 48 h. The supernatant is collected and subjected to western blot analysis. […] Since the amphisome, which is formed by the fusion of the autophagosome with the MVB/late endosome, has been implicated in extracellular vesicles secretion, and PD-L1 is found to be associated with LC3B during PD-L1 trafficking (FIG. 2a), inventors examine whether the autophagosome formation is involved in exosomal PD-L1 secretion. Thus, inventors knock out the expression of Rab27A, LC3B or ATG4B in HeLa cells and collect their supernatant respectively for western blot analysis.
Furthermore, HeLa cells are treated with or without Bafilomycin A1 (10 nM), or Torin 1 (100 nM) for 48 h. The cell lysates and supernatant are collected for western blot analysis. […] In contrast, Torin1, an autophagy activator, has little effect on total and exosomal PD-L1 levels (FIG. 2g). […] On the other hand, blockage on the fusion between lysosomes and late endosomes or autophagosomes may induce PD-L1 secretion via exosomes.
It has previously been shown that interfering with endosomal trafficking promotes exosome secretion. Moreover, PD-L1 has been reported to be enriched in exosomes and secreted outside the cell. Thus, inventors speculate that 6J1 may induce the secretion of the PD-L1 trapped in the endosomal compartments via exosomes. To determine whether 6J1 may induce the secretion of PD-L1 via exosomes, HeLa cells are treated with or without 6J1 (1 μM) for 24 h. The supernatant is collected. Inventors purify the exosomes from the supernatant of HeLa cells by sequential centrifugation. The concentration of extracellular vesicle is determined using a Nanosight nanoparticle analyzer. And HeLa cells are treated with or without 6J1 (1 μM) for 48 h. The cell and supernatant are collected for Western Blot analysis. […] Moreover, the activity of Rab27a in HeLa cells treated with or without 6J1 (1 μM) is examined with a GST-SHD pulldown assay.
(§1) Moreover, ATG5- or LC3-knockout HeLa cells are treated with or without 6J1 (1 μM) for 24 h. The supernatant is collected, and the concentration of the extracellular vesicle is determined using a Nanosight nanoparticle analyzer. The exosomes are also collected and subjected to western blot analysis of the EVs marker and PD-L1 in FIG. 7a. The live cells are also labeled with an anti-PD-L1 antibody in FIG. 7b and subjected to flow cytometry analysis in FIG. 7c. […] In addition, inventors assess whether other autophagy-related genes, e.g., ATG4B, ATG7, Beclin1, and Vps34 are involved in 6J1-mediated exosomal PD-L1 secretion. ATG4B-, ATG7-, Beclin1-, or VPS34-knockout HeLa cells are treated with or without 6J1 (1 μM) for 24 h. The supernatant is collected, and the concentration of extracellular vesicle is determined using a Nanosight nanoparticle analyzer. The exosomes are also collected and subjected to western blot analysis of the EVs marker and PD-L1 in FIG. 7d. The live cells are also labeled with an anti-PD-L1 antibody and subjected to flow cytometry analysis in FIG. 7e.

PD-L1 [2] = assay: Plasma membrane PD-L1 level in HeLa cells (flow cytometry, confocal imaging); type: cell-based; conditions: 1 μM, 24 h
Procedure: Next, inventors assess if 6J1 can compromise PD-L1 trafficking. PDL1-GFP stable expressing HeLa cells are treated with or without 6J1 (1 μM) for 24 h. Cells are fixed and stained with Rab5 or EEA1. Their quantifications of the colocalization are shown in FIGS. 4d and 4e, respectively. […] Inventors thus further quantify cell membrane PD-L1 levels in live cells treated with or without 6J1 by flow cytometry or confocal imaging.
as §1

PD-L1-knockout 4T1 cells = assay: PD-L1-knockout 4T1 tumors in Balb/c mice; type: in vivo, mouse; conditions: 30 mg/kg, daily, oral gavage
Procedure: To assess whether the in vivo antitumor growth effect of 6J1 is related to its effect on PD-L1 in 4T1 cells, inventors knock out PD-L1 via CRISPR/Cas9 in 4T1 cells (FIG. 10a). 4T1-NC or 4T1-PD-L1 knockout cells are treated with or without 6J1 (1 μM) for 24 h. The supernatant is collected, and the concentration of extracellular vesicle is determined using a Nanosight nanoparticle analyzer. The exosomes are also collected and subjected to western blot analysis of the EVs marker and PD-L1. […] Inventors then transplant control or PD-L1-knockout 4T1 cells into the fat pad of syngeneic female Balb/c mice. The mice are randomly divided (n=5 per group) and treated with either buffer or 6J1 (30 mg/kg, daily) via oral gavage.

[3] = ATG4B-, ATG7-, Beclin1- or VPS34-knockout HeLa cells
[4] = ATG5- or LC3B-knockout HeLa cells

OCCOCCN(c1ccccc1)c1nc(N/N=C/c2cccc(I)c2)nc(N2CCOCC2)n1 [Compound 6J1]
6J1-induced exosomal PD-L1 secretion (PD-L1 [1]; [3]): fails to abolish | 6J1-induced exosomal PD-L1 secretion (PD-L1 [1]; [4]): Neither ATG5 nor LC3B knockout impairs | exosomal PD-L1 level (PD-L1 [1]; HeLa cells, 48 h, ionomycin 1 μM, Bafilomycin A1 10 nM, Torin 1 100 nM, 6J1 1 μM): increases PD-L1 level in exosomes | 6J1-mediated decrease in the level of PD-L1 at the cell surface (PD-L1 [2]; [3]): does not affect | 6J1-induced decrease in the level of PD-L1 at the cell surface (PD-L1 [2]; [4]): Neither ATG5 nor LC3B knockout impairs | expression of PD-L1 on the surface of cells (PD-L1 [2]; HeLa cells): significantly reduces the expression of PD-L1 on the surface of cells | tumor growth in mice implanted with PD-L1-knockout 4T1 cells (PD-L1-knockout 4T1 cells): fails to decrease further tumor growth
